Test results from PubChem BioAssay AID296 (DTP/NCI, 2004).
Values joined by “and” are separate entries in the source; they are usually repeats but may differ in a detail not shown here. Identical values can stand only once. Results filed as inconclusive are left out.

Tested on: MX-1 breast xenograft, nude mice, tumor weight T/C
Experiment: NCI In Vivo Anticancer Drug Screen. Data for tumor model Human Mammary Carcinoma MX-1 Xenograft (intrarenal inoculation) in NU/NU Swiss (nude) mice
Details: endpoint: mean tumor weight change, higher = larger tumour
How it was run: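 Mice carrying the implanted tumor receive either test agent or vehicle. Tumor size or survival is then recorded for both groups. Results are stated as the treated-to-control quotient.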

[1] = dose: 400.0 mg/kg/injection, schedule: Q01DX010 (sc), vehicle: saline with Tween-80
[2] = dose: 300.0 mg/kg/injection, schedule: Q04DX003 (sc), vehicle: Klucel (hydroxypropylcellulose) (HPC)
[3] = dose: 75.0 mg/kg/injection, schedule: Q04DX003 (sc), vehicle: saline with Tween-80
[4] = dose: 150.0 mg/kg/injection, schedule: Q04DX003 (sc), vehicle: saline with Tween-80
[5] = dose: 300.0 mg/kg/injection, schedule: Q04DX003 (sc), vehicle: saline with Tween-80
[6] = dose: 600.0 mg/kg/injection, schedule: Q04DX003 (sc), vehicle: saline with Tween-80
[7] = dose: 1200.0 mg/kg/injection, schedule: Q04DX003 (sc), vehicle: saline with Tween-80
[8] = dose: 150.0 mg/kg/injection, schedule: Q04DX003 (sc), vehicle: saline + alcohol
[9] = dose: 300.0 mg/kg/injection, schedule: Q04DX003 (sc), vehicle: saline + alcohol
[10] = dose: 50.0 mg/kg/injection, schedule: Q01DX010 (sc), vehicle: Klucel (hydroxypropylcellulose) (HPC)

COCC1OC2OC3C(COC)OC(OC4C(COC)OC(OC5C(COC)OC(OC6C(COC)OC(OC7C(COC)OC(OC8C(COC)OC(OC1C(O)C2O)C(O)C8O)C(O)C7O)C(O)C6O)C(O)C5O)C(O)C4O)C(O)C3O (stereo unspecified) (tested in a mixture with another compound)
T/C (dose: 100.0 mg/kg/injection, schedule: Q04DX003 (sc), vehicle: Klucel (hydroxypropylcellulose) (HPC)): 82 % of control
T/C (dose: 200.0 mg/kg/injection, schedule: Q04DX003 (sc), vehicle: Klucel (hydroxypropylcellulose) (HPC)): 96 % of control
T/C (dose: 400.0 mg/kg/injection, schedule: Q04DX003 (sc), vehicle: Klucel (hydroxypropylcellulose) (HPC)): 86 % of control
T/C (dose: 800.0 mg/kg/injection, schedule: Q04DX003 (sc), vehicle: Klucel (hydroxypropylcellulose) (HPC)): 76 % of control

COC1=NCN=C2SC=C(N)N=C12
T/C (dose: 37.5 mg/kg/injection, schedule: Q04DX003 (sc), vehicle: suspension in saline): 50 % of control
T/C (dose: 75.0 mg/kg/injection, schedule: Q04DX003 (sc), vehicle: suspension in saline): 30 % of control
T/C (dose: 150.0 mg/kg/injection, schedule: Q04DX003 (sc), vehicle: suspension in saline): 43 % of control

Nc1ncc(C2OC(CO)C(O)C2O)c(=O)[nH]1 (stereo unspecified)
T/C (dose: 150.0 mg/kg/injection, schedule: Q04DX003 (ip), vehicle: saline): 53 % of control
T/C (dose: 300.0 mg/kg/injection, schedule: Q04DX003 (ip), vehicle: saline): 35 % of control
T/C (dose: 600.0 mg/kg/injection, schedule: Q04DX003 (ip), vehicle: saline): 25 % of control

C[C@]12CCC(=O)C(O)=C1CC[C@@H]1[C@@H]2CC[C@]2(C)C(=O)CC[C@@H]12
T/C (dose: 35.0 mg/kg/injection, schedule: Q01DX010 (sc), vehicle: Klucel (hydroxypropylcellulose) (HPC)): 223 % of control
T/C (dose: 70.0 mg/kg/injection, schedule: Q01DX010 (sc), vehicle: Klucel (hydroxypropylcellulose) (HPC)): 112 % of control
T/C (dose: 280.0 mg/kg/injection, schedule: Q01DX010 (sc), vehicle: Klucel (hydroxypropylcellulose) (HPC)): 88 % of control

C=C(C)[C@]12CC(C)C34OC(/C=C\C=C\CCCCCCCCC)(O[C@@H]1[C@@H]3[C@@H]1O[C@]1(CO)[C@@H](O)[C@]1(O)C(=O)C(C)=C[C@@H]41)O2 (stereo partly specified)
T/C (dose: 6.0 mg/kg/injection, schedule: Q04DX003 (sc), vehicle: distilled water + alcohol): 102 % of control
T/C (dose: 12.0 mg/kg/injection, schedule: Q04DX003 (sc), vehicle: distilled water + alcohol): 95 % of control

c1ccc2sc(SSN3CC4CCC(CC4)C3)nc2c1
T/C (dose: 200.0 mg/kg/injection, schedule: Q01DX010 (sc), vehicle: saline with Tween-80): 156 % of control
T/C [1]: 95 % of control

CCN(CC)c1ccc2cc(-c3nc4ccccc4n3C)c(=O)oc2c1
T/C (dose: 75.0 mg/kg/injection, schedule: Q04DX003 (sc), vehicle: Klucel (hydroxypropylcellulose) (HPC)): 119 % of control
T/C (dose: 150.0 mg/kg/injection, schedule: Q04DX003 (sc), vehicle: Klucel (hydroxypropylcellulose) (HPC)): 104 % of control
T/C [2]: 123 % of control

OCCOCCN1CCN(CCCN2c3ccccc3Sc3ccc(C(F)(F)F)cc32)CC1
T/C (dose: 3.0 mg/kg/injection, schedule: Q01DX010 (sc), vehicle: saline): 111 % of control
T/C (dose: 24.0 mg/kg/injection, schedule: Q01DX010 (sc), vehicle: saline): 41 % of control and 55 % of control
T/C (dose: 48.0 mg/kg/injection, schedule: Q01DX010 (sc), vehicle: saline): 39 % of control

O=C(N/N=C\c1cc(Br)cc(Br)c1O)N/N=C/c1cc(Br)cc(Br)c1O
T/C [1]: 72 % of control
T/C (dose: 800.0 mg/kg/injection, schedule: Q01DX010 (sc), vehicle: saline with Tween-80): 61 % of control

CC(=O)Oc1c[nH]c(=O)[nH]c1=O
T/C (dose: 100.0 mg/kg/injection, schedule: Q04DX003 (sc), vehicle: distilled water + Tween-80): 117 % of control
T/C (dose: 400.0 mg/kg/injection, schedule: Q04DX003 (sc), vehicle: distilled water + Tween-80): 97 % of control
T/C (dose: 800.0 mg/kg/injection, schedule: Q04DX003 (sc), vehicle: distilled water + Tween-80): 95 % of control
T/C (dose: 1600.0 mg/kg/injection, schedule: Q04DX003 (sc), vehicle: distilled water + Tween-80): 58 % of control

COc1cc2cc(c1Cl)N(C)C(=O)CC(OC(=O)CC(C)C)C1(C)OC1C(C)C1CC(O)(NC(=O)O1)C(OC)/C=C/C=C(C)C2 (stereo unspecified)
T/C (dose: 25.0 micrograms/kg/injection, schedule: Q01DX010 (sc), vehicle: saline + alcohol): -12 % of control
T/C (dose: 100.0 micrograms/kg/injection, schedule: Q01DX010 (sc), vehicle: saline + alcohol): -54 % of control

CC(=O)CC(C)=O.CC(=O)CC(C)=O.O=N[O-].O=N[O-].[Co]
T/C [3]: 72 % of control
T/C [4]: 67 % of control

CCOC(=O)c1cn(C)c2c1C(O)=C(C(=O)OC)CC(=O)N2
T/C [4]: 95 % of control
T/C [5]: 80 % of control
T/C [6]: 85 % of control
T/C [7]: 90 % of control

CC(Cc1ccc(O)c(O)c1)C(C)Cc1ccc(O)c(O)c1 (stereo unspecified)
T/C [8]: 109 % of control
T/C [9]: 92 % of control
T/C (dose: 1200.0 mg/kg/injection, schedule: Q04DX003 (sc), vehicle: saline + alcohol): 92 % of control

CCOC(=O)CNC(=O)Sc1ccc(C(C)(C)C)cc1
T/C [2]: 123 % of control
T/C (dose: 600.0 mg/kg/injection, schedule: Q04DX003 (sc), vehicle: Klucel (hydroxypropylcellulose) (HPC)): 88 % of control
T/C (dose: 1200.0 mg/kg/injection, schedule: Q04DX003 (sc), vehicle: Klucel (hydroxypropylcellulose) (HPC)): 81 % of control
T/C (dose: 2400.0 mg/kg/injection, schedule: Q04DX003 (sc), vehicle: Klucel (hydroxypropylcellulose) (HPC)): 77 % of control

O=C1c2ccccc2C(=O)c2c(NCCNCCO)ccc(O)c21
T/C (dose: 25.0 mg/kg/injection, schedule: Q04DX003 (sc), vehicle: suspension in saline): 95 % of control
T/C (dose: 50.0 mg/kg/injection, schedule: Q04DX003 (sc), vehicle: saline): 92 % of control
T/C (dose: 100.0 mg/kg/injection, schedule: Q04DX003 (sc), vehicle: saline): 69 % of control
T/C (dose: 100.0 mg/kg/injection, schedule: Q04DX003 (sc), vehicle: suspension in saline): 69 % of control and 78 % of control
T/C (dose: 200.0 mg/kg/injection, schedule: Q04DX003 (sc), vehicle: saline): 63 % of control
T/C (dose: 200.0 mg/kg/injection, schedule: Q04DX003 (sc), vehicle: suspension in saline): 78 % of control
T/C (dose: 400.0 mg/kg/injection, schedule: Q04DX003 (sc), vehicle: saline): 37 % of control
T/C (dose: 400.0 mg/kg/injection, schedule: Q04DX003 (sc), vehicle: suspension in saline): 98 % of control

C(CSC1=NCCN1)CSC1=NCCN1
T/C (dose: 50.0 mg/kg/injection, schedule: Q01DX010 (sc), vehicle: saline): 103 % of control

CC(=O)OC1OC(=O)C(C)(C(C)=O)C1C (stereo unspecified)
T/C (dose: 5.0 mg/kg/injection, schedule: Q04DX003 (ip), vehicle: distilled water + alcohol): 85 % of control
T/C (dose: 10.0 mg/kg/injection, schedule: Q04DX003 (ip), vehicle: distilled water + alcohol): 109 % of control
T/C (dose: 20.0 mg/kg/injection, schedule: Q04DX003 (ip), vehicle: distilled water + alcohol): 35 % of control

Cc1cc(N(CCOS(C)(=O)=O)CCOS(C)(=O)=O)ccc1C=Nc1ccc(-c2nc(Cc3ccccc3)sc2C)cc1
T/C [10]: -79 % of control
T/C (dose: 100.0 mg/kg/injection, schedule: Q01DX010 (sc), vehicle: Klucel (hydroxypropylcellulose) (HPC)): -88 % of control
T/C (dose: 200.0 mg/kg/injection, schedule: Q01DX010 (sc), vehicle: Klucel (hydroxypropylcellulose) (HPC)): -87 % of control

Cc1c2cc(Cl)c3ccccc3c2c[n+]2ccccc12
T/C [5]: 82 % of control
T/C [6]: 67 % of control
T/C [7]: 44 % of control
T/C (dose: 2400.0 mg/kg/injection, schedule: Q04DX003 (sc), vehicle: saline with Tween-80): 76 % of control

CCOC(=O)Nc1cc2c(c(N)n1)N=C(CN(C)c1ccccc1)CN2
T/C (dose: 25.0 mg/kg/injection, schedule: Q01DX010 (sc), vehicle: Klucel (hydroxypropylcellulose) (HPC)): 82 % of control
T/C [10]: 70 % of control

CC(=O)Nc1ccc(S(=O)(=O)CO)cc1
T/C [5]: 121 % of control
T/C [6]: 85 % of control

Nc1nnc[se]1
T/C (dose: 100.0 mg/kg/injection, schedule: Q04DX003 (sc), vehicle: saline with Tween-80): 54 % of control
T/C (dose: 1600.0 mg/kg/injection, schedule: Q04DX003 (sc), vehicle: saline with Tween-80): 74 % of control

CSc1ncnc2c1ncn2C1OC(CO)C(O)C1O (stereo unspecified)
T/C (dose: 75.0 mg/kg/injection, schedule: Q04DX003 (sc), vehicle: saline + alcohol): 3 % of control and 14 % of control
T/C [8]: -81 % of control and -100 % of control
T/C [9]: -90 % of control

CCCCCCCCCCCCCC#CC(=O)O
T/C [3]: 87 % of control
T/C [4]: 94 % of control
T/C [5]: 92 % of control
T/C [6]: 77 % of control
